Results published in US11471390B2, “Pseudoceramide compound and use thereof” (DAEBONG LS, LTD, priority 2017, dated 2022).

Test system: Raw264.7 macrophage cells
Assay: Cell viability of Raw264.7 macrophage cells by MTT assay (cytotoxicity)
Type: cell-based
Details: Raw264.7, MTT
Experimental: The cell viabilities of Raw264.7 macrophage cells were assessed by MTT assay to evaluate the cytotoxicities of the pseudoceramide compounds. When the cell viability was ≥80% by MTT assay, the pseudoceramide compound was judged to be not cytotoxic. The cell viabilities of the pseudoceramide compounds were […] at concentrations of 1-50 μg/mL, indicating no toxicity to Raw264.7 macrophage (Table 1). Another experiment for anti-inflammatory effects of the pseudoceramide compounds was conducted at concentrations of 1-50 μg/mL.

Cc1ccnc(N)c1 [2-Amino-4-methylpyridine, reference compound]
Cell viability (%) (10 μM): 103.13%

CCCCCCCC/C=C\CCCCCCCC(=O)NC(CO)CO [Example 1, N-(1,3-dihydroxypropan-2-yl)oleamide]
Cell viability (%) (concentration 5.0 (μg/mL)): 100.99%
Cell viability (%) (concentration 10.0 (μg/mL)): 102.08%
Cell viability (%) (concentration 25.0 (μg/mL)): 102.14%
Cell viability (%) (concentration 50.0 (μg/mL)): 102.22%

CCCCC/C=C\C/C=C\CCCCCCCC(=O)NC(CO)CO [Example 2, (9Z,12Z)—N-(1,3-dihydroxypropan-2-yl)octadeca-9,12-dienamide]
Cell viability (%) (concentration 5.0 (μg/mL)): 100.35%
Cell viability (%) (concentration 10.0 (μg/mL)): 100.24%
Cell viability (%) (concentration 25.0 (μg/mL)): 100.09%
Cell viability (%) (concentration 50.0 (μg/mL)): 93.80%

CC/C=C\C/C=C\C/C=C\CCCCCCCC(=O)NC(CO)CO [Example 3, (9Z,12Z,15Z)—N-(1,3-dihydroxypropan-2-yl)octadeca-9,12,15-trienamide]
Cell viability (%) (concentration 5.0 (μg/mL)): 95.72%
Cell viability (%) (concentration 10.0 (μg/mL)): 101.01%
Cell viability (%) (concentration 25.0 (μg/mL)): 96.58%
Cell viability (%) (concentration 50.0 (μg/mL)): 96.64%
